Data reported in patent publication US20070010568A1, “Substituted azabicyclo hexane derivatives as muscarinic receptor antagonists” (priority 2003, published 2007).

Legend:
M2 muscarinic receptor = target: T1, M2 muscarinic receptor (Rattus norvegicus, UniProt P10980); test: Radioligand binding assay, [3H]-N-methylscopolamine, rat heart membranes; conditions: [3H]NMS, 24-25° C., read-out: Receptor Binding Assay M2 (pKi) (converted)
T1 construct: Submandibular glands and heart were isolated and placed in ice cold homogenising buffer; from tissue; host or cells: rat heart membrane homogenate
T1 sequence (P10980 1-466): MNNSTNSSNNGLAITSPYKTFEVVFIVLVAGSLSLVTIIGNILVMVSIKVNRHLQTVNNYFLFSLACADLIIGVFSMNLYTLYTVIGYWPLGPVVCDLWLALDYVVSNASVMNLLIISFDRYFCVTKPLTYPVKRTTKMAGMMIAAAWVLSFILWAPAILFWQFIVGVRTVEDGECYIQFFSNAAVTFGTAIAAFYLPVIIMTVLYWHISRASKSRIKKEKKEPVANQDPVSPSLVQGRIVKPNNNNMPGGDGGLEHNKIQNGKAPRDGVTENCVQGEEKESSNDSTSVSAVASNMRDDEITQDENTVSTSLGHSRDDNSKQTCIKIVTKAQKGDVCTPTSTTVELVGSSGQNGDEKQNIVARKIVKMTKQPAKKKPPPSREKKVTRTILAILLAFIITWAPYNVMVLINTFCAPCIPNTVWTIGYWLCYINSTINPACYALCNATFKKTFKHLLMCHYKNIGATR
Procedure: (§1) The affinity of test compounds for M2 and M3 muscarinic receptor subtypes was determined by [^3H]-N-methylscopolamine binding studies using rat heart and submandibular gland respectively as described by Moriya et al., (Life Sci., 1999; 64 (25): 2351-2358).
(§2) Membrane preparation: Submandibular glands and heart were isolated and placed in ice cold homogenising buffer (EPES 20 mM, 10 mM EDTA, pH 7.4) immediately after sacrifice. The tissues were homogenised in 10 volumes of homogenising buffer and the homogenate was filtered through two layers of wet gauze and filtrate was centrifliged at 500 g for 10 min. The supernatant was subsequently centrifuged at 40,000 g for 20 min. The pellet thus obtained was resuspended in same volume of assay buffer (HEPES 20 mM, EDTA 5 mM, pH 7.4) and were stored at −70° C. until the time of assay.
(§3) Ligand binding assay: The compounds were dissolved and diluted in DMSO. The membrane homogenates (150-250 μg protein) were incubated in 250 μl of assay buffer (HEPES 20 mM, pH 7.4) at 24-25° C. for 3 h. Non-specific binding was determined in the presence of 1 μM atropine. The incubation was terminated by vaccum filtration over GF/B fiber filters(Wallac). The filters were then washed with ice cold 50 mM Tris HCl buffer (pH 7.4). The filter mats were dried and bound radioactivity retained on filters was counted. The IC50 & Kd were estimated by using the non-linear curve fitting program using G Pad Prism software. The value of inhibition constant Ki was calculated from competitive binding studies by using Cheng & Prusoff equation (Biochem Pharmacol, 1973,22: 3099-3108), Ki=IC50/(1+L/Kd), where L is the concentration of [^3H]NMS used in the particular experiment. pKi=−log Ki Functional Experiments Using Isolated Rat Bladder: Methodology: […]

M3 muscarinic receptor = target: T2, M3 muscarinic receptor (Rattus norvegicus, UniProt P08483); test: Radioligand binding assay, [3H]-N-methylscopolamine, rat submandibular gland membranes; conditions: [3H]NMS, 24-25° C., read-out: Receptor Binding Assay M3 (pKi) (converted)
T2 construct: Submandibular glands and heart were isolated and placed in ice cold homogenising buffer; from tissue; host or cells: rat submandibular gland membrane homogenate
Procedure: as §1, §2, §3

T2 sequence (P08483 whole entry): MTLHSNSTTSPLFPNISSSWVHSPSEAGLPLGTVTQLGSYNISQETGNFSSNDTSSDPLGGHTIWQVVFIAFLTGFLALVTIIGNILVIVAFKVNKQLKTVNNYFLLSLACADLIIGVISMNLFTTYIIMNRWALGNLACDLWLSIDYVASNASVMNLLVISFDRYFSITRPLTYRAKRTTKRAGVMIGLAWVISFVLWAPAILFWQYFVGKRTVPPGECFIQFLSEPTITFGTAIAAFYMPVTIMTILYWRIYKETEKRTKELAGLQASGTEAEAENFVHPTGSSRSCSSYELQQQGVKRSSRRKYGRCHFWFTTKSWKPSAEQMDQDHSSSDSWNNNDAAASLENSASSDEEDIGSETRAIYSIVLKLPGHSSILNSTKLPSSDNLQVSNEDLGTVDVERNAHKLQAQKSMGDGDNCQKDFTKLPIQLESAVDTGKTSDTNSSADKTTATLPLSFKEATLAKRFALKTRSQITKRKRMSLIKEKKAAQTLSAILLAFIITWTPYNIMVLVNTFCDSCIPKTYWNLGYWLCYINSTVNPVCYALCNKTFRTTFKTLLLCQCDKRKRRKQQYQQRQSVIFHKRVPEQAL

Row | Compound | Ki (M2 muscarinic receptor) [µM] | Ki (M3 muscarinic receptor) [µM]
1 | O=C(CC(c1ccccc1)(c1ccccc1)c1ccccc1)N[C@H]1[C@@H]2CN(Cc3ccccc3)C[C@@H]21 [Compound No. 1, (1α, 5α, 6α)-N-[3-benzyl-3-azabicyclo[3.1.0]-hexyl-6-amino-yl]-3,3,3-triphenylpropionaniide] | > 1 | > 1
2 | CC(C)=CCCN1C[C@@H]2[C@H](C1)[C@H]2NC(=O)CC(c1ccccc1)(c1ccccc1)c1ccccc1 [Compound No. 2, (1α, 5α, 6α)-N-[3-(4-methyl-3-pentenyl)-3-azabicyclo[3.1.0]-hexyl-6-amino-yl]-3,3,3-triphenyl propionamide] | > 1 | > 1
3 | O=C(CC(c1ccccc1)(c1ccccc1)c1ccccc1)N[C@H]1[C@@H]2CN(CCc3ccc4c(c3)OCO4)C[C@@H]21 [Compound No. 3, (1α, 5α, 6α)-N-[3-{2-(3,4-methylenedioxy-phenyl)ethyl}-3-azabicyclo [3.1.0]-hexyl-6-amino-yl]-3,3,3-triphenylpropionamide] | > 1 | > 1
4 | O=C(CC(c1ccccc1)(c1ccccc1)c1ccccc1)N[C@H]1[C@@H]2CN(CC(=O)c3ccc4c(c3)CCO4)C[C@@H]21 [Compound No. 4, (1α, 5α, 6α)-N-[3-{2-oxo-2-(2,3-dihydrobenzofuran-5-yl)ethyl}-3-azabicyclo[3.1.0]-hexyl-6-amino-yl]-3,3,3-triphenyl propionamide] | > 1 | > 1
5 | O=C(CCNC(=O)CNC(=O)CC(c1ccccc1)(c1ccccc1)c1ccccc1)NC[C@@H]1[C@H]2CN(Cc3ccccc3)C[C@@H]12 [Compound No. 5, (1α, 5α, 6α)-N-[(3-oxopropyl)amino-2-oxoethyl-3-benzyl-3-azabicyclo [3.1.0]-hexyl-6-aminomethyl]-3,3,3-triphenyl propionamide] | > 1 | > 1
6 | O=C(CNC(=O)CC(c1ccccc1)(c1ccccc1)c1ccccc1)NCCC(=O)N[C@H]1[C@@H]2CN(Cc3ccccc3)C[C@@H]21 [Compound No. 6, (1α, 5α, 6α)-N-[(3-oxopropyl]amino-2-oxoethyl-3-benzyl-3-azabicyclo [3.1.0]-hexyl-6-amino-yl]-3,3,3-triphenyl propionamide] | > 1 | > 1
7 | O=C(N[C@H]1[C@@H]2CNC[C@@H]21)C(O)(c1ccc(F)cc1)c1ccc(F)cc1 [Compound No. 7, (1α, 5α, 6α)-N-[3-azabicylo[3.1.0]-hexyl-6-amino-yl]-2-hydroxy-2,2-bis-4-fluorophenyl acetamide] | > 1 | > 1
8 | CCCOC(C(=O)N[C@H]1[C@@H]2CNC[C@@H]21)(c1ccc(F)cc1)c1ccc(F)cc1 [Compound No. 8, (1α, 5α, 6α)-N-[3-azabicyclo[3.1.0]-hexyl-6-amino-yl]-2-propyloxy-2,2-bis-4-fluorophenyl acetamide] | > 1 | > 1
